Several values for one entry are separate records, joined by “and”; a condition that tells them apart may be missing. Equal entries are not always repeated. Entries after “also recorded” stand apart in the source; their conditions may differ.
What was measured:
MDA-MB-468 [1] = assay: Morphological examination; type: cell-based; settings: 10 μM; 24 hours
Experimental: (§1) MCF-7, MDA-MB-231, MDA-MB-468 and HNME-E6/E7 cells were seeded in a 6-well plates at a concentration of 200,000-300,000 cells/well and were incubated overnight. After incubation, cells were treated with different compounds.

MCF-7 [2] = assay: Morphological examination; type: cell-based; settings: 10 μM; 48 hours
Experimental: as §1

MDA-MB-231 = assay: Morphological examination; type: cell-based; settings: 10 μM
Experimental: as §1

[3] = test system: Chorioallantoic membrane (CAM) of the chicken embryos; assay: Chorioallantoic membrane (CAM) angiogenesis assay; type: in vivo; settings: treated at embryonic day 4, read at day 8; 2 μl of 5 mM stock under coverslip
Experimental: Fertilized white Leghorn chicken embryos (Arab Qatari for Poultry Production, Qatar) were purchased and incubated at 60% humidity at 37° C. in MultiQuip incubator. Ethics approval was obtained from Qatar University-Institutional Bio-safety committee. The embryos were treated in ovo at embryonic day 4 with three of the synthesized chalcones (5, 13 and 14) compared to DMSO treated controls. Briefly, a small cut was made at the top of the shells of the eggs and each treatment was added under a round coverslip at 2 μl of 5 mM stock solutions. Microscopic pictures were taken at embryonic day 8. Embryos treated with compounds 13 and 14 were sacrificed at embryonic day 9 for clinical observations. Quantification of blood vessels was performed manually and the different treatment groups were compared.

HNME-E6/E7 = assay: Morphological examination of normal cells; type: cell-based, human; settings: 5 μM; 48 hours
Experimental: as §1

[4] = test system: MDA-MB-231 xenografted nude mice; assay: In vivo tumor growth, xenograft model
[5] = test system: BAX/bcl2 expression in MDA-MB-231 cell line; assay: Western blot of BAX/bcl-2 expression; type: cell-based; settings: 48 h, 5 and 10 μM; vs DMSO and colchicine
Experimental: (§2) Proteins were quantified with the Pierce BCA Protein Assay Kit (Thermo Scientific, USA) following cell lysis. SDS-PAGE was prepared at a concentration of 10% for all studied proteins. All samples were loaded at 40 μg per 1.5 mm 15 wells comb. Running of stained samples was performed using two steps gel electrophoresis (60 Volts for 20 minutes followed by 120 Volts for 1 hour). Afterwards, gels were transferred into PVDF membrane at 100 Voltage for 1.5-2.0 hours using wet transfer. Following transfer, PVDF membranes were blocked with 5% skimmed milk and washed three times. Primary antibodies (Table 2.2) were prepared, then PVDF membrane were incubated with them overnight with gentle shaking at 4° C. Afterwards, membranes were washed three times and incubated with their respective secondary antibodies for 1-2 hours with gentle shaking at room temperature. Pierce™ ECL Western Blotting Substrate was used to detect proteins by chemiluminescence. Blots were imaged using the ibrightCL1000 imaging system.

[6] = test system: BAX/bcl2 expression in MCF-7 cell line; assay: Western blot of BAX/bcl-2 expression; type: cell-based; settings: 48 h, 5 and 10 μM; vs DMSO and colchicine
Experimental: as §2

tubulin = assay: Cell free tubulin polymerization assay; type: biochemical; settings: N=1×2, colchicine and paclitaxel as controls
Experimental: The effect of compound 14 on tubulin polymerization dynamics was assessed using the cell free Cytoskeleton tubulin polymerization assay kit, Version 8.3 (Cytoskeleton, Inc., USA). The experiment was conducted based on the manufacturer's recommendations. colchicine was used as a depolymerizing control while paclitaxel was used as a polymerizing control. Briefly, stock solutions of 10 μM of the compounds and controls were prepared in general tubulin buffer. Then, 10 μl of each solution was added in duplicates in half area 96-well plate prewarmed at 37° C. It was subsequently incubated at 37° C. for 2 minutes. Tubulin solution was prepared and 100 μl of it was added to each of the prewarmed wells of the compounds. The plate was immediately placed at a plate reader set up at kinetic modes and 37° C. temperature. Recording was conducted every minute for 60 minutes at 340 nm Absorbance.

SK-BR-3 = assay: Radius cell migration assay; type: cell-based; settings: Homo sapiens, 24 hours of treatment, 5 concentrations, three independent experiments, read-out: Migratory IC50 SK-BR-3
Experimental: (§3) For MCF-7 and SK-BR-3 cell lines, migration testing was performed using the Radius™ Cell Migration Assay Kit (Cell Biolabs, Inc., USA) and migration was quantified based on the change in wound area.

MCF-7 [7] = assay: Radius cell migration assay; type: cell-based; settings: Homo sapiens, MCF7; 24 hours of treatment; 5 concentrations; three independent experiments; read-out: Migratory IC50 MCF-7
Experimental: as §3

MDA-MB-468 [8] = assay: PE Annexin V apoptosis assay (flow cytometry); type: cell-based
Experimental: PE Annexin V apoptosis Detection Kit (BD Pharmingen, USA) was used to quantify cell apoptosis in treated versus untreated MDA-MB-468 cells at 24 and 48 hours post treatment. Briefly, cells were seeded at a density of 300,000 cells/well in 6-well plates. Second day, media was replaced with fresh media and treatment was added. Cells were harvested following treatment and each group of cells was stained with PE Annexin V and 7-AAD Annexin V as per the protocol specified on the kit. Samples were then analyzed by Accuri C6 flow cytometer (BD Biosciences, USA). The percentages of cells (viable cells, apoptotic cells, necrotic cells and dead cells) were quantified in each of the four quadrants. Data and figures were processed using the FlowJo V10 software.

[9] = 10 mg/kg i.p., three times per week, 45 days

SMILES	cell morphology (MDA-MB-468 [1])	cell morphology (MCF-7 [2])	cell morphology (MDA-MB-231; 24 hours)	cell morphology (MDA-MB-231; 48 hours)	inhibition of blood vessels development vs control [3]	cell morphology of normal cells (HNME-E6/E7)	day on which the tumor in the treated group started to grow ([4]; 10 mg/kg i.p., three times per week)	clinical toxicity to treated animals (in words) [4, 9]	mice health and weight (in words) [4, 9]	inhibition in tumor growth as compared to the placebo ([4]; 10 mg/kg i.p., three times per week, day 45, n=5)	survival rate of the mice ([4]; during the 45 days)	tumor volume ([4]; treated mice, day 45, n=5)	tumor weight ([4]; treated mice, day 45, n=5)	BAX / bcl-2 protein expression, BAX/bcl-2 ratio [5]	BAX / bcl-2 protein expression, BAX/bcl-2 ratio [6]	effect on tubulin polymerization (in words) (tubulin)	IC50 (SK-BR-3)	IC50 (MCF-7 [7])	early and late apoptosis (in words) (MDA-MB-468 [8]; 24 and 48 hours)	rate of apoptosis (MDA-MB-468 [8]; 48 hours, N=1)
CS(=O)(=O)c1ccc(C(=O)/C=C/c2ccc(N(CCCl)CCCl)cc2)cc1 [Compound 13, (E)-3-(4-(Bis(2-chloroethyl)amino)phenyl)-1-(4-(methylsulfonyl)phenyl) prop-2-en-1-one]	obvious change in cell shape	triggered cells to become larger in shape	look more spherical in shape and to lose their mesenchymal fibroblastic property	Mainly single circular cells were obvious	55.6±6.04%	induced morphological changes	–	–	–	–	–	–	–	–	–	–	–	–	–	–
COc1cccc(C(=O)/C=C/c2ccc(N(CCCl)CCCl)cc2)c1 [Compound 14, (E)-3-(4-(Bis(2-chloroethyl)amino)phenyl)-1-(3-methoxyphenyl) prop-2-en-1-one]	obvious change in cell shape	induced cell shrinkage	did not induce a significant difference	change in cell shape	60.20±8.47%	induced morphological changes	24 days	no notable clinical toxicity	did not affect the mice health nor it had induced any changes to the mice weight	46.41±0.71% and 46.41%	100%	1350±1350 mm^3	0.88±0.71 gm	upregulation of BAX and downregulation of bcl-2; also recorded: positive increase in BAX/bcl-2 ratio	upregulation of BAX and downregulation of bcl-2; also recorded: positive increase in BAX/bcl-2 ratio	inhibited with an effect comparable to colchicine; also recorded: comparable to tubulin desterilizing agent, colchicine	2.79 ± 0.45 µM	2.44 ± 0.39 µM	time dependent	28.00%
